Data on 25 compounds can be found in patent US10865196B2, “Compounds for treatment of cancer” (University of Tennessee Research Foundation, priority 2008, dated 2020).

Molecules are shown by their SMILES. Like-named read-outs stand apart in the source and are kept apart here.

One data set deals with OVCAR-8. Nature of the data set: SRB antiproliferation assay, OVCAR-8 ovarian cancer. Particulars: Homo sapiens, OVCAR-8, read-out: IC50 OVCAR-8.
The next data set concerns NCI/ADR-RES. Nature of the data set: SRB antiproliferation assay, P-gp over-expressing NCI/ADR-RES. In general terms: In SRB staining, fixed cells bind dye roughly in proportion to their protein.
Data set [1] concerns prostate cancer cells (LNCaP, PC-3, DU-145, PPC-1). Nature of the data set: SRB assay, prostate cancer cells. In kind it is cell-based, human.
A further data set has as its system DU 145. Nature of the data set: SRB antiproliferation assay, DU 145 prostate cancer. Particulars: read-out: IC50 DU 145, SRB.
A further data set deals with LNCaP. Nature of the data set: SRB antiproliferation assay, LNCaP prostate cancer. Particulars: read-out: IC50 LNCaP, SRB.
For the next data set, the system named is A375. Description: SRB antiproliferation assay, A375 melanoma. In kind it is cell-based, human. The conditions noted are these: read-out: IC50 A375 (converted). The text has this: (§1) For melanoma assays, one human melanoma cell line (A375) and one mouse melanoma cell line (B16-F1) were used. […] Fibroblast cells were used as a control to determine the selectivity of these compounds against melanoma. Human dermal fibroblast cells were purchased from Cascade Biologics, Inc., Portland, Oreg., USA.

For another data set, the system named is PPC-1. Description: SRB antiproliferation assay, PPC-1 prostate cancer. The conditions noted are these: read-out: IC50 PPC-1, SRB.
The subject of another data set is B16-F1. Nature of the data set: SRB antiproliferation assay, B16-F1 melanoma. In kind it is cell-based, mouse. The conditions noted are these: read-out: IC50 B16-F1 (converted).
From the text: as §1

A further data set relates to PC-3. Description: SRB antiproliferation assay, PC-3 prostate cancer. The conditions noted are these: read-out: IC50 PC-3, SRB.
Data set [2] deals with melanoma (A375, B16-F1) and prostate cancer cells (DU145, PC-3, LNCaP, PPC-1). Description: SRB assay, range over melanoma and prostate cancer cell lines. The format is cell-based. Particulars: for IC50: range over the examined cell lines, read-out: IC50 over melanoma and prostate cancer cell lines. The method, then:
(§2) For melanoma assays, one human melanoma cell line (A375) and one mouse melanoma cell line (B16-F1) were used. […] Fibroblast cells were used as a control to determine the selectivity of these compounds against melanoma. Human dermal fibroblast cells were purchased from Cascade Biologics, Inc., Portland, Oreg., USA. […] Cells were exposed to a wide range of concentrations for 48 h in round-bottomed 96-well plates. […] After cells were air-dried overnight and stained with SRB solution, total proteins were measured at 560 nm with a plate reader.

The next data set deals with WM164. Description: SRB antiproliferation assay, WM-164 melanoma. The format is cell-based. Particulars: Homo sapiens.
Data set [3] has as its system Human dermal fibroblast cells. Nature of the data set: SRB assay, fibroblast control cells. The format is cell-based. The method, then: as §2

Turning to `COc1cc(C(=O)c2cccc(-c3ccccc3)n2)cc(OC)c1OC`, the IC50 in the data set on OVCAR-8 is 33 ± 3 nM; in the data set on NCI/ADR-RES (Homo sapiens, NCI/ADR-RES, read-out: IC50 NCI/ADR-RES) it was 13 ± 0.8 nM.

Take `COc1cc(C(=NC#N)c2csc(-c3ccccc3)n2)cc(OC)c1OC`: the Resistance factor with NCI/ADR-RES (NCI/ADR-RES vs OVCAR-8) is recorded as 0.4.

Turning to `COc1cc(C(=O)c2csc(-c3ccc(CN)cc3)n2)cc(OC)c1OC`, the IC50 with OVCAR-8 was 26 ± 2 nM.

In the case of `COc1cc(C(=O)c2csc(Nc3ccccc3)n2)cc(OC)c1OC` [5-a], the “activity in prostate cancer cell lines, in words” value in [1] is on record as “potent activity”.

Turning to `COc1cc(C(=O)c2csc(Nc3ccc(F)cc3)n2)cc(OC)c1OC` [5-c], the “activity in prostate cancer cell lines, in words” value in data set [1] is “potent activity”.

On to `COc1cc(C(=O)c2csc(Nc3ccc(Cl)cc3)n2)cc(OC)c1OC` [5-d], for which the “activity in prostate cancer cell lines, in words” value in data set [1] is reported as “potent activity”.

As to `COc1ccc(-c2nc(C(=O)c3cc(OC)c(OC)c(OC)c3)cs2)cc1OC` [8o, [2-(3,4-Dimethoxyphenyl)-thiazol-4-yl]-(3,4,5-trimethoxyphenyl)-methanone], the IC50 in the data set on DU 145 is 102 nM; with LNCaP, 38 nM; with A375 (Homo sapiens, A-375, SRB), 34 nM; in the data set with PPC-1, 56 nM; with B16-F1 (Mus musculus, B16-F1, SRB), 161 nM; in the data set with PC-3 it was 69 nM.

On to `COc1cc(C(=O)c2csc(-c3ccc([N+](=O)[O-])cc3)n2)cc(OC)c1OC` [8p, [2-(4-Nitrophenyl)-thiazol-4-yl]-(3,4,5-trimethoxyphenyl)-methanone], for which the IC50 in the data set on DU 145 is 95 nM; in the data set on LNCaP, 39 nM; in the data set with A375 (Homo sapiens, A-375, SRB) it was 38 nM; with PPC-1, 34 nM; in the data set on B16-F1 (Mus musculus, B16-F1, SRB), 56 nM; with PC-3, 56 nM.

In the case of `COc1cc(C(=O)c2csc(-c3ccc(C#N)cc3)n2)cc(OC)c1OC` [8q, 4-[4-(3,4,5-Trimethoxybenzoyl)-thiazol-2-yl]-benzonitrile], the IC50 with DU 145 was 52 nM; in the data set on LNCaP, 15 nM; in the data set on A375 (Homo sapiens, A-375, SRB), 59 nM; in the data set on PPC-1, 19 nM; with B16-F1 (Mus musculus, B16-F1, SRB) it was 53 nM; with PC-3, 30 nM.

Consider `COc1cc(C(=O)c2csc(-c3ccc(C(F)(F)F)cc3)n2)cc(OC)c1OC` [8t, (2-(4-(Trifluoromethyl)-phenyl)-thiazol-4-yl)(3,4,5-trimethoxyphenyl)-methanone], for which the IC50 in the data set with DU 145 is 50 nM; in the data set with LNCaP, 94 nM; in the data set with A375 (Homo sapiens, A-375, SRB) it was 23 nM; in the data set with PPC-1 it was 76 nM; with B16-F1 (Mus musculus, B16-F1, SRB) it was 92 nM; with PC-3 it was 58 nM.

With `COc1cc(C(=O)c2csc(-c3ccc(Br)cc3)n2)cc(OC)c1OC` [8u, [2-(4-Bromophenyl)-thiazol-4-yl]-(3,4,5-trimethoxyphenyl)-methanone], the IC50 was 21 nM in the data set on DU 145; 44 nM with LNCaP; 13 nM with A375 (Homo sapiens, A-375, SRB); 21 nM in the data set on PPC-1; 18 to 44 nM in [1] (Homo sapiens, range over prostate cancer cell lines, read-out: IC50 values against prostate cancer cells); 32 nM with B16-F1 (Mus musculus, B16-F1, SRB). In addition, in the data set with PC-3, the IC50 was 18 nM.

`CCc1ccc(-c2nc(C(=O)c3cc(OC)c(OC)c(OC)c3)cs2)cc1` [8v, [2-(4-Ethyl-phenyl)-thiazol-4-yl]-(3,4,5-trimethoxy-phenyl)-methanone]: the IC50 in the data set with DU 145 is 31 nM; in the data set with LNCaP, 60 nM; in the data set on PPC-1 it was 22 nM; in [2], 17 to 70 nM; with B16-F1 (Mus musculus, B16-F1, SRB), 70 nM; in the data set with PC-3, 27 nM.

For orientation: melting point means the temperature, or range, at which the solid turns liquid. With `COc1cc(C(=O)c2csc(-c3ccncc3)n2)cc(OC)c1OC` [8x, [2-(Pyridin-4-yl)-thiazol-4-yl]-(3,4,5-trimethoxyphenyl)-methanone], the melting point lay in the range of 178 to 180 °C. The IC50 with DU 145 was more than 20000 nM. Moreover, in the data set with LNCaP, the IC50 is more than 20000 nM. Also, the IC50 in the data set with A375 (Homo sapiens, A-375, SRB) was more than 100000 nM. In the data set with PPC-1, the IC50 is more than 20000 nM. For the same compound, the IC50 in the data set on B16-F1 (Mus musculus, B16-F1, SRB) is more than 100000 nM. The IC50 in the data set on PC-3 was more than 20000 nM.

`COc1cc(C(=O)c2csc(-c3ncccn3)n2)cc(OC)c1OC` [8y, [2-(Pyrimidin-2-yl)-thiazol-4-yl]-(3,4,5-trimethoxyphenyl)-methanone] came in with a melting point of 190 to 191 °C. Also, in the data set on DU 145, the IC50 is 2810 nM. In addition, in the data set on LNCaP, the IC50 is 2370 nM. Moreover, the IC50 in the data set on A375 (Homo sapiens, A-375, SRB) is 4100 nM. In the data set with PPC-1, the IC50 is 1190 nM. Moreover, in [2], the IC50 fell in the range of 11800 to 41000 nM. In addition, the IC50 in the data set on B16-F1 (Mus musculus, B16-F1, SRB) was 2300 nM. Besides, the IC50 in the data set with PC-3 is 2660 nM.

Regarding `Cc1ccc(-c2nc(C(=O)c3ccc(F)cc3)cs2)cc1` [11-11], the IC50 was 3470 nM in the data set on A375 (Homo sapiens, A-375, SRB); 4900 nM in the data set with B16-F1 (Mus musculus, B16-F1, SRB); 4700 nM with WM164.

`O=C(c1ccc(OC(F)(F)F)cc1)c1csc(-c2ccccc2)n1` [13-13]: the IC50 in the data set with A375 (Homo sapiens, A-375, SRB) was more than 10000 nM; with B16-F1 (Mus musculus, B16-F1, SRB), more than 10000 nM; with WM164 it was more than 10000 nM.

Take `CCc1cc(C(=O)c2csc(-c3ccccc3)n2)cc(OC(F)(F)F)c1OC(=O)CCl` [18-18]: the IC50 in the data set with DU 145, with LNCaP, in the data set with PPC-1 and with PC-3 was approximately 10000 nM throughout.

Turning to `COc1ccc(C(=O)n2ccnc2-c2ccc(F)cc2)cc1` [24-24], the IC50 with A375 (Homo sapiens, A-375, SRB) is more than 10000 nM; with B16-F1 (Mus musculus, B16-F1, SRB), more than 10000 nM; with WM164, more than 10000 nM.

`CCCCCCCCCCCCCCCCNC(=O)[C@@H]1CSC(c2ccc(NC(C)=O)cc2)N1` (stereo partly shown) [ATCAA-1, reference compound]: the IC50 in the data set with DU 145 (96 h) is 1700 ± 100 nM; with LNCaP (96 h) it was 1000 ± 100 nM; in the data set with A375 (SRB, 48 h) it was 2100 ± 200 nM; in the data set with PPC-1 (96 h), 400 ± 100 nM; in data set [2], 400 to 2200 nM; in the data set with B16-F1 (SRB, 48 h), 2200 ± 300 nM.

Consider `CC(=O)Nc1ccc(C2N[C@H](C(=O)Nc3ccc4c(c3)Cc3ccccc3-4)CS2)cc1` (stereo partly shown) [ATCAA-2, reference compound], for which the IC50 was 1900 ± 300 nM in the data set on DU 145 (96 h); 3500 ± 700 nM in the data set with LNCaP (96 h); 2100 ± 100 nM in the data set with A375 (SRB, 48 h); 1600 ± 100 nM in the data set with PPC-1 (96 h); 1600 to 3900 nM in data set [2]; 2100 ± 100 nM in the data set on PC-3 (96 h).

With `COc1cc(C(=O)c2cscn2)cc(OC)c1OC` [compound 10, Thiazol-4-yl-(3,4,5-trimethoxy-phenyl)-methanone], the melting point lay in the range of 106 to 108 °C. In addition, the IC50 in the data set with DU 145 was more than 20000 nM. Besides, the IC50 in the data set on LNCaP was more than 20000 nM. Further, the IC50 in the data set on A375 (Homo sapiens, A-375, SRB) was more than 100000 nM. Besides, the IC50 in the data set on PPC-1 was more than 20000 nM. Besides, the “antiproliferative activity against melanoma and prostate cancer cell lines, in words” value in data set [2] (compared with 8f or parent compounds) was “total loss of activity”. Moreover, the IC50 with B16-F1 (Mus musculus, B16-F1, SRB) is more than 100000 nM. In addition, the IC50 with PC-3 is more than 20000 nM.

`COc1cc(/C(=N/O)c2csc(-c3ccccc3)n2)cc(OC)c1OC` [compound 33, (Z)-(2-Phenylthiazol-4-yl)(3,4,5-trimethoxyphenyl)methanone oxime] yielded a melting point of 150 to 153 °C. The IC50 in the data set with A375 (Homo sapiens, A-375, 48 h, SRB, 48 h) is 180 nM. Besides, in [3], the IC50 was determined as 360 nM. Besides, the IC50 with B16-F1 (Mus musculus, B16-F1, 48 h, SRB, 48 h) was 320 nM.

In turn, `COc1cc(/C(=N\O)c2csc(-c3ccccc3)n2)cc(OC)c1OC` [compound 34, (E)-(2-Phenylthiazol-4-yl)(3,4,5-trimethoxyphenyl)methanone oxime] came in with a melting point of 176 to 177 °C. Moreover, the IC50 in the data set on DU 145 (96 h) is more than 1000 nM. The IC50 in the data set with LNCaP (96 h) was more than 1000 nM. The IC50 with PPC-1 (96 h) was more than 1000 nM. In [3], this compound yielded an IC50 of 10100 nM. Besides, the IC50 in the data set with PC-3 (96 h) was more than 1000 nM.

The compound `COc1cc(/C(=N/N)c2csc(-c3ccccc3)n2)cc(OC)c1OC` [compound 35, (Z)-4-(Hydrazono(3,4,5-trimethoxyphenyl)methyl)-2-phenylthiazole] gave a melting point of 117 to 119 °C. This compound displayed an IC50 in data set [3] of 1900 nM.

As for `COc1cc(/C(=N\N)c2csc(-c3ccccc3)n2)cc(OC)c1OC` [compound 36, (E)-4-(Hydrazono(3,4,5-trimethoxyphenyl)methyl)-2-phenylthiazole], the melting point lay within 65 to 66 °C. This compound showed an IC50 in [3] of 1000 nM.
